Common to all, as to assay type: cell-based
The target in experiment [1] is T1, transient receptor potential vanilloid 1 (TRPV1) (Rattus norvegicus, UniProt O35433).
T1 construct: native channel in rat DRG neurons
As to the kind of experiment: whole-cell patch clamp of capsaicin-induced currents in rat DRG neurons, single concentration ([…]).

Experiment [2] concerns the target T1, transient receptor potential vanilloid 1 (TRPV1). In words: whole-cell patch clamp of capsaicin-induced TRPV1 currents in rat DRG neurons; capsaicin concentration curves with and without C9. From the text:
whole-cell patch clamp of capsaicin-induced TRPV1 currents in rat DRG neurons; capsaicin concentration curves with and without C9 on transient receptor potential vanilloid 1 (TRPV1) | Concentration dependence curve of the inhibition on CAP-induced TRPV1 currents of C9.

The target is the same in experiment [3]. As to the kind of experiment: whole-cell patch clamp in rat DRG neurons, capsaicin concentration-response ([…]).

SMILES strings stand for the structures.

T1 sequence (O35433 whole entry): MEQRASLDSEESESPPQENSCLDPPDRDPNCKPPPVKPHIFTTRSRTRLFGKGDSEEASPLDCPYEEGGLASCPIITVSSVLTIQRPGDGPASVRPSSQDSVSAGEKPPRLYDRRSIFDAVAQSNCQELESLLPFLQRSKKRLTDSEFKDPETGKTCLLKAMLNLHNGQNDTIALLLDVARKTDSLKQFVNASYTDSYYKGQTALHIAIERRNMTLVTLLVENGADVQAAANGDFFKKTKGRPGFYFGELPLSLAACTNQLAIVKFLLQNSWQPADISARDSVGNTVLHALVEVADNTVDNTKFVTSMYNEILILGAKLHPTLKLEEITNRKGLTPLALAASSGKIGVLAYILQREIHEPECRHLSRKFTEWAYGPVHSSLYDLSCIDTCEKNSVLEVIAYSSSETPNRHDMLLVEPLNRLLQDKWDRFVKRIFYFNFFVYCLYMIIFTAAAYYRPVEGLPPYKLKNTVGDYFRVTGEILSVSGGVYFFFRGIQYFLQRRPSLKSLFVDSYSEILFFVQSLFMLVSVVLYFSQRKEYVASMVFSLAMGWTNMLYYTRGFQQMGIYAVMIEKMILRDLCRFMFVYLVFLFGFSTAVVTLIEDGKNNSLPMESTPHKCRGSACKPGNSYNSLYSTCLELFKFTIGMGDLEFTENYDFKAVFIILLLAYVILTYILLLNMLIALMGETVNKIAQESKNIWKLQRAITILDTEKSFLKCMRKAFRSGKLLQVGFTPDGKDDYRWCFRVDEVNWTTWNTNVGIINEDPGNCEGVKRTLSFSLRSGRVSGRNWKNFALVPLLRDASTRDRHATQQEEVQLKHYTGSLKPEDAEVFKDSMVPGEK

On to `Oc1cc2c(cc1O)CN(C(=S)NCCc1ccc(Cl)cc1)CCC2` [capsazepine], for which, in experiment [1], the “whole-cell patch clamp of capsaicin-induced currents in rat DRG neurons, single” value is recorded as “The recorded current was almost completely suppressed by capsazepine (CPZ), proving that it was the CAP-induced TRPV1 current”.
Consider `C[C@@H]1O[C@@H](O[C@H]2[C@H](O)[C@@H](O)[C@H](OC[C@H]3O[C@@H](OC(=O)[C@]45CCC(C)(C)C[C@H]4C4=CC[C@@H]6[C@@]7(C)CC[C@H](O[C@@H]8OC[C@H](O)[C@H](O)[C@H]8O)[C@@](C)(CO)[C@@H]7CC[C@@]6(C)[C@]4(C)CC5)[C@H](O)[C@@H](O)[C@@H]3O)O[C@@H]2CO)[C@H](O)[C@H](O)[C@H]1O` [Compound 9, hederasaponin D], for which, in experiment [2], the response was half-maximal at 36.9 ± 4.4 nM (EC50).
Consider `COc1cc(CNC(=O)CCCC/C=C/C(C)C)ccc1O` [capsaicin], for which the “whole-cell patch clamp in rat DRG neurons, capsaicin concentration-response (0.0)” value in experiment [3] is on record as “Concentration dependent curves of TRPV1 currents induced by CAP in the presence or absence of C9”.
